Results taken from paper PMC11755562, “Peptide Inhibitor Assay for Allocating Functionally Important Accessible Sites Throughout a Protein Chain: Restriction Endonuclease EcoRI as a Model Protein System” (BioTech, 2024).
“Also recorded” adds a separate entry of the source.

Tests used:
EcoRI [1] = target: T1, EcoRI (Escherichia coli, UniProt P00642); test: Peptide inhibitor assay (PIA): EcoRI digestion of pCRII-TOPO-OR23 plasmid, fluorescence intensity of the excised OR23 band on agarose gel; assay type: biochemical; conditions: for level of inhibitory effect on EcoRI (in words) / inhibitory effect compared with the original peptide (in words) / significance of inhibition of EcoRI activity versus no peptide / relative fluorescence intensity of excised OR23 fragment: 3 h; for level of inhibitory effect on EcoRI (in words): EcoRI:peptide 1:500, relative fluorescence intensity; for inhibitory effect compared with the original peptide (in words): EcoRI:peptide 1:500, randomized peptides by Student's t-test versus each endogenous BP; for significance of inhibition of EcoRI activity versus no peptide: EcoRI:peptide 1:500, Dunnett's test versus no peptide; for relative fluorescence intensity of excised OR23 fragment: relative to no peptide, EcoRI:peptide 1:500 molar ratio, 37 °C, 0.015 mM Mg2+, mean of n = 3; for inhibitory effect, fluorescence intensity versus incubation time (in words): time course until 5 h, EcoRI:peptide 1:500, compared with no peptide
T1 construct: The first M is removed after translation in this protein; purchased New England Biolabs
Method: Peptide synthesis was performed by GenScript Japan (Tokyo, Japan). All peptides were confirmed to be more than 75% pure via high-performance liquid chromatography (HPLC) and to have theoretical molecular weights via mass spectrometry (MS). The peptides were dissolved in DMSO (dimethyl sulfoxide) and were prepared at 5.59 × 10^−9 mol/μL (5.59 mM). When 1.0 μL of this peptide mixture was mixed in a tube for the inhibition of EcoRI catalytic activity, the molar ratio of EcoRI to peptide was 1:500. This concentration in molar equivalence was used throughout this study unless otherwise noted.
Purified and concentrated EcoRI (20,000 U/mL, approximately 338 μg/mL, 1.12 × 10^−[…]) was obtained from New England Biolabs (Ipswich, MA, USA). To quantify and visualize the inhibitory effects of the peptides, the enzymatic reaction conditions were set so that at least three hours of incubation were required to completely digest the substrate plasmid DNA with EcoRI. To do so, we used a low Mg^2+ concentration (0.015 mM) in the reaction mixture in contrast to the optimum concentration of Mg^2+ for EcoRI (10 mM).
(§1) All master solutions and samples were prepared on ice. A single reaction tube contained the following common ingredients: autoclaved DNase-free RNase-free deionized H2O (12.5 μL) (Nippon Gene), 10× NE Buffer Mg^2+-free (2.0 μL), pCRII-TOPO-OR23 plasmid DNA (2.0 μL of 40 ng/μL solution), MgCl2 (1.5 μL of 0.20 mM solution), and EcoRI (1.0 μL). A master solution containing these ingredients without DMSO or a peptide was first prepared for the number of sample tubes. The master solution was aliquoted into 1.5 mL spin tubes (19.0 μL per tube). Then, 1.0 μL of DMSO or a peptide sample was added, and the mixture was incubated at 37 °C. A negative control with DMSO but without a peptide (“no peptide” control) was run in every assay. When the digestion efficiency was compared, another negative control with autoclaved DNase-free RNase-free H2O without EcoRI was prepared. After the reaction, the samples were quickly cooled on ice for ten minutes and then stored at −80 °C until agarose gel electrophoresis. The above protocol was conducted for all peptides (including BP19.5, BP19.5N, and BP19.5C) used in the present study unless otherwise noted.
To quantify EcoRI activity after incubation of a reaction mixture, digested pCRII-TOPO-OR23 plasmid DNA was examined via agarose gel electrophoresis. We first prepared a 25 mL solution of 1.0% agarose (Nippon Gene) in TAE (Tris-acetate-EDTA) buffer (Promega, Madison, WI, USA) to produce an agarose gel. An ethidium bromide solution (0.5 μL of 10 mg/mL) (Promega) was added before gelation. After incubation with EcoRI, the fluorescence intensity of the band of the excised OR23 fragment was measured via an ImageQuant LAS4000 (GE Healthcare Japan, Tokyo, Japan) with the following conditions: “Exposure Type”: Precision; “Exposure Time”: Manual 1/8 sec; “Sensitivity/Resolution”: Standard; and “Fluorescent Method”: Epi illumination; EtBr; UV (Trans UV) light; 6-5DF50 Filter; and F2.8 Iris.
For statistical analyses, Student’s t-test (unpaired and bi-sided), Dunnett’s test, and Pearson correlation analysis were performed via Microsoft Excel (Office 365) and JSTAT (Yokohama, Japan). The Dunnett’s test was performed for each experimental group that was examined simultaneously in the laboratory, in comparison to the “no peptide” control group that was examined simultaneously. The repeated measure mode of the Dunnett’s test was used on the assumption that there was no interaction between samples.

EcoRI [2] = target: T1, EcoRI; test: Nonspecific nuclease activity of EcoRI reaction mixture with peptide (plasmid DNA degradation); assay type: biochemical; conditions: EcoRI plus peptide 1:500, 3 h; n = 3
Method: A recombinant plasmid, pCRII-TOPO (Invitrogen, Waltham, MA, USA), containing a PCR fragment of the full-length cDNA (978 bp) of the mouse odorant receptor OR23 [82, 83, 84, 85, 86] at the EcoRI cloning site (GAATTC) was used as a DNA substrate for EcoRI. […] This pCRII-TOPO-OR23 plasmid was prepared from TOP10F’ Escherichia coli (Invitrogen) using ATP Plasmid Mini Kit (ATP Biotech, Taipei, ROC). The plasmid solution was prepared at 40 ng/μL by adding autoclaved DNase-free RNase-free deionized H2O (Nippon Gene, Tokyo, Japan). The DNA concentrations were measured with a Qubit fluorometer (Invitrogen).
as §1
This reaction mixture containing EcoRI and BP19.5 appeared to degrade the plasmid DNA entirely. […] The DNA concentration at 3 h was 3.297 ± 0.006 ng/μL without any peptide in the reaction mixture and 0.332 ± 0.003 ng/μL with BP19.5, indicating a statistically significant difference (n = 3; unpaired bi-sided Student’s t-test; p = 1.6 × 10^−11). […] Therefore, BP19.5 and its derivatives are likely to cause EcoRI to become a nonspecific nuclease. In other words, BP19.5 was likely a specificity/activity modifier of EcoRI instead of an inhibitor.

T1 sequence (P00642 2-277): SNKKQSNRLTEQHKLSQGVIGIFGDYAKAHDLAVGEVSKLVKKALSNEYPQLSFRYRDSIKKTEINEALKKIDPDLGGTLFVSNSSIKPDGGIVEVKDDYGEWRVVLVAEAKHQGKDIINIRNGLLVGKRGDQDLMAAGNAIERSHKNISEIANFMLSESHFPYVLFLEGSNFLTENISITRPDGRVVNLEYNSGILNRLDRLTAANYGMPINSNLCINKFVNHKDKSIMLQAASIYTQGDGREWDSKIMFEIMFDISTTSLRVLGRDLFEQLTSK

## AAGNAI [BP13M]
EcoRI [1]; n = 3
  level of inhibitory effect on EcoRI (in words): noninhibitory

## AANYGMPINSNL [BP19]
EcoRI [1]; n = 3
  level of inhibitory effect on EcoRI (in words): did not show high inhibition
EcoRI [2]
  plasmid DNA degradation / nonspecific nuclease induction (agarose gel electrophoresis, in words): did not have such an induction ability

## AGRKQEVHAVWVEL [BP10R2]
EcoRI [1]; n = 3
  inhibitory effect compared with the original peptide (in words): as inhibitory as the original peptides

## AVGEVSKLVKKALS [BP4]
EcoRI [1]; n = 3
  significance of inhibition of EcoRI activity versus no peptide: significantly inhibitory

## DGLTPFSDVLGI [BP7R2]
EcoRI [1]; n = 3
  inhibitory effect compared with the original peptide (in words): significantly less inhibitory

## DLMAAGNAIERS [BP13]
EcoRI [1]; n = 3
  level of inhibitory effect on EcoRI (in words): not very inhibitory

## EAKHQGKDIIN [BP10.5]
EcoRI [1]; n = 3
  level of inhibitory effect on EcoRI (in words): not very inhibitory

## EALDIAMGRNSA [BP13R1]
EcoRI [1]; n = 3
  inhibitory effect compared with the original peptide (in words): significantly more inhibitory

## EGSNFLTENISI [BP16]
EcoRI [1]; n = 3
  level of inhibitory effect on EcoRI (in words): highly inhibitory; also recorded: most effective
EcoRI [1]
  relative fluorescence intensity of excised OR23 fragment: less than 0.3

## EIANFM [BP14C]
EcoRI [1]; n = 3
  inhibitory effect compared with the original peptide (in words): as inhibitory as the original BP14

## EQHKLSQGVIGI [BP2]
EcoRI [1]; n = 3
  significance of inhibition of EcoRI activity versus no peptide: significantly inhibitory
  level of inhibitory effect on EcoRI (in words): highly inhibitory; also recorded: most effective
EcoRI [1]
  relative fluorescence intensity of excised OR23 fragment: less than 0.3

## EWRVVL [BP10N]
EcoRI [1]; n = 3
  level of inhibitory effect on EcoRI (in words): noninhibitory

## EWRVVLVAEAKHQG [BP10]
EcoRI [1]; n = 3
  level of inhibitory effect on EcoRI (in words): not very inhibitory

## FRYRDSIKKTEI [BP5.5]
EcoRI [1]; n = 3
  level of inhibitory effect on EcoRI (in words): least inhibitory; also recorded: noninhibitory

## FVSNSSIKPDGG [BP8]
EcoRI [1]; n = 3
  level of inhibitory effect on EcoRI (in words): noninhibitory
  inhibitory effect, fluorescence intensity versus incubation time (in words): relatively low inhibitory effects

## GIVEVK [BP9M]
EcoRI [1]; n = 3
  inhibitory effect compared with the original peptide (in words): more inhibitory than the original

## GREWDSKIMFEIMF [BP22]
EcoRI [1]; n = 3
  significance of inhibition of EcoRI activity versus no peptide: significantly inhibited EcoRI activity
  level of inhibitory effect on EcoRI (in words): especially notable
  inhibitory effect, fluorescence intensity versus incubation time (in words): relatively high inhibitory effects
EcoRI [1]; ×5 to ×500 molar equivalence to EcoRI, fixed time point 3 h, n = 3
  concentration dependence of the inhibitory effect: concentration dependent

## IDPDLG [BP7N]
EcoRI [1]; n = 3
  level of inhibitory effect on EcoRI (in words): noninhibitory

## IKKTEI [BP6N]
EcoRI [1]; n = 3
  inhibitory effect compared with the original peptide (in words): as inhibitory as the original BP6

## IKKTEINEALKKID [BP6]
EcoRI [1]; n = 3
  significance of inhibition of EcoRI activity versus no peptide: significantly inhibited EcoRI activity
  level of inhibitory effect on EcoRI (in words): especially notable

## KPDGGIVEVKDDYG [BP9]
EcoRI [1]; n = 3
  level of inhibitory effect on EcoRI (in words): not very inhibitory

## KRGDQDLMAAG [BP12.5]
EcoRI [1]; n = 3
  level of inhibitory effect on EcoRI (in words): not very inhibitory

## LAMRGASIADEN [BP13R2]
EcoRI [1]; n = 3
  inhibitory effect compared with the original peptide (in words): significantly less inhibitory

## LDRLTAANYGM [BP18.5]
EcoRI [1]; n = 3
  level of inhibitory effect on EcoRI (in words): noninhibitory
